According to US11214803B2, “Modulators of YAP1 expression” (Ionis Pharmaceuticals, Inc., priority 2019, dated 2022):
Strand notation (5' to 3'): a small letter for the sugar, then the base; units joined by * are phosphorothioate-linked, units joined directly phosphodiester-linked; [ ] holds rarer units or linkages, { } end groups; capitals alone tell only the bases. e = 2'-O-(2-methoxyethyl) (MOE); k = constrained ethyl (cEt); [5mC] = 5-methylcytosine; d = 2'-deoxy (DNA); m = 2'-O-methyl

tested on: Yap1 mRNA; test: Antisense inhibition of human Yap1 in SNU-449 cells by modified oligonucleotides, single dose (Example 5, RTS36584); format: cell-based; details: Table 39; SNU-449 cells, 10,000 cells per well, free uptake, 2,000 nM oligonucleotide, approx. 48 hours; RTS36584; normalized to RIBOGREEN; Yap1 mRNA relative to untreated control
Method: Modified oligonucleotides with additional chemistry modifications were designed to target a Yap1 nucleic acid and were tested for their effect on Yap1 mRNA level in SNU-449 cells. The modified oligonucleotides were tested in a series of experiments that had similar culture conditions. Cultured SNU-449 cells at a density of 10,000 cells per well were treated using free uptake with 2,000 nM of modified oligonucleotide. After a treatment period of approximately 48 hours, RNA was isolated from the cells and Yap1 mRNA levels were measured by quantitative real-time RTPCR. Human primer probe set RTS36584 was used to measure mRNA levels. Yap1 mRNA levels were normalized to total RNA content, as measured by RIBOGREEN®. Results are presented in the tables below as percent control of the amount of Yap1 mRNA relative to untreated control cells (% UTC). The modified oligonucleotides with percent control values marked with an asterisk (*) target the amplicon region of the primer probe set. Additional assays may be used to measure the potency and efficacy of the modified oligonucleotides targeting the amplicon region.
Several different chemistry modifications were tested, which are specified in the Chemistry Notation column of the tables below, wherein the notation “d” refers to a 2′-deoxyribose sugar, the notation “s” refers to a phosphorothioate (P═S) internucleoside linkage, the notation “k” refers to a cEt modified sugar, the notation “y” refers to a 2′-O-methyl ribose sugar, the notation “e” refers to a MOE modified sugar, and the notation “^mC” refers to a 5-methylcytosine.
“Start site” indicates the 5′-most nucleoside to which the gapmer is targeted in the human gene sequence. “Stop site” indicates the 3′-most nucleoside to which the gapmer is targeted human gene sequence. […] Activity of the modified oligonucleotide may be defined in a different experiment.

Substance	YAP1 (% UTC)
1198386 (kT*dA*dT*dA*dT*dT*dA*dG*dA*dG*dT*kA*eT*kG*eT*kG; antisense) [Compound 1198386]	77
1198385 (kA*dT*dA*dT*dT*dA*dG*dA*dG*dT*dA*kT*eG*kT*eG*kG; antisense) [Compound 1198385]	30
1198430 (kA*dT*dA*dT*dT*dG*d[5mC]*dA*dA*dT*d[5mC]*kT*eG*kT*e[5mC]*kT) [Compound 1198430]	49

same assay, conditions: Table 40 (separate experiment); SNU-449 cells, 10,000 cells per well, free uptake, 2,000 nM oligonucleotide, approx. 48 hours; RTS36584; normalized to RIBOGREEN; Yap1 mRNA relative to untreated control

Substance	YAP1 (% UTC)
1198717 (kA*eA*kA*dT*dT*dG*dT*d[5mC]*dT*d[5mC]*dA*dT*eG*e[5mC]*k[5mC]*kT; antisense) [Compound 1198717]	41
1198750 (kG*eG*kA*dA*dG*dA*dT*d[5mC]*dT*dG*dA*dA*eA*e[5mC]*kT*k[5mC]; antisense) [Compound 1198750]	32
1198756 (kG*eT*kG*d[5mC]*dT*dT*dT*dG*dG*dA*dA*dG*eA*eT*k[5mC]*kT; antisense) [Compound 1198756]	50
1198742 (kT*eT*kT*dT*dA*d[5mC]*dA*dT*dT*dA*dG*dG*eA*eA*k[5mC]*kA; antisense) [Compound 1198742]	143

same assay, conditions: Table 41; SNU-449 cells, 10,000 cells per well, free uptake, 2,000 nM modified oligonucleotide, approximately 48 hours; RTS36584; normalized to RIBOGREEN; Yap1 mRNA relative to untreated control cells

Substance	YAP1 (% UTC)
1198788 (antisense kA*eA*kG*dT*dG*dT*dA*dT*dG*dT*d[5mC]*dA*eG*eA*kA*kG) [Compound 1198788]	17
1198660 (antisense kG*kG*dA*dA*dG*dA*dT*d[5mC]*dT*dG*dA*dA*kA*e[5mC]*kT*e[5mC]) [Compound 1198660]	66

same assay, conditions: Table 42 (separate experiment); SNU-449 cells, 10,000 cells per well, free uptake, 2,000 nM modified oligonucleotide, approximately 48 hours; RTS36584; normalized to RIBOGREEN; Yap1 mRNA relative to untreated control cells

Substance	YAP1 (% UTC)
1198702 (kT*kT*dT*dA*dA*dA*dG*dT*dG*dT*dA*dT*kG*eT*k[5mC]*eA; antisense) [Compound 1198702]	74
1198713 (kT*kT*dA*dG*dA*d[5mC]*dT*dA*dA*dG*dT*dA*kA*eG*kG*eT; antisense) [Compound 1198713]	62
1198683 (antisense kA*k[5mC]*dT*d[5mC]*dT*dT*dA*dT*dA*dT*dG*dG*kT*eT*kT*eT) [Compound 1198683]	27
1198205 (kA*kT*dG*dG*dA*dA*dA*dT*dT*dG*dT*e[5mC]*eT*e[5mC]*kA*kT; antisense) [Compound 1198205]	64

same assay, conditions: Table 43 experiment; SNU-449 cells, 10,000 cells per well, free uptake, 2,000 nM, approximately 48 hours; RTS36584; Yap1 mRNA normalized to RIBOGREEN, relative to untreated control cells

Substance	YAP1 (% UTC)
1198281 (kG*kA*d[5mC]*dT*dA*dA*dG*dT*dA*dA*dG*eG*eT*eT*kT*k[5mC]; antisense) [Compound 1198281]	71
1095593 (antisense kT*kG*dA*dG*dG*dT*dA*dT*dA*dA*d[5mC]*eT*eG*eG*kG*k[5mC]) [Compound 1095593]	16
1198480 (antisense kT*kT*dT*dT*dA*d[5mC]*dA*dT*dT*dA*dG*eG*kA*eA*k[5mC]*eA) [Compound 1198480]	75
1198470 (antisense kT*kA*dT*dT*dA*dG*dA*dG*dT*dA*dT*eG*kT*eG*kG*e[5mC]) [Compound 1198470]	17
1198219 (kG*kA*dG*dG*dT*dA*dT*dA*dA*d[5mC]*dT*eG*eG*eG*k[5mC]*kA; antisense) [Compound 1198219]	22
1198465 (antisense kA*kG*dT*dA*dT*dG*dT*dG*dG*d[5mC]*dA*eA*kT*eA*kA*eT) [Compound 1198465]	68
1198271 (kT*kT*dA*dA*dA*dG*dT*dG*dT*dA*dT*eG*eT*e[5mC]*kA*kG) [Compound 1198271]	44

same assay, conditions: Table 44 experiment; SNU-449 cells, 10,000 cells per well, free uptake, 2,000 nM, approximately 48 hours; RTS36584; Yap1 mRNA normalized to RIBOGREEN, relative to untreated control cells

Substance	YAP1 (% UTC)
1198533 (kT*kA*dA*dG*dG*dT*dT*dT*d[5mC]*d[5mC]*d[5mC]*eA*kG*eA*kT*eT; antisense) [Compound 1198533]	35
1095623 (antisense k[5mC]*kA*d[5mC]*dT*dG*dA*dG*dG*dT*dA*dT*eA*kA*e[5mC]*kT*eG) [Compound 1095623]	57
1198891 (kA*kT*dT*dG*dT*d[5mC]*dT*d[5mC]*dA*dT*dG*k[5mC]*d[5mC]*kT*dT*kA) [Compound 1198891]	18
1198493 (antisense kT*kG*d[5mC]*dT*dT*dT*dG*dG*dA*dA*dG*eA*kT*e[5mC]*kT*eG) [Compound 1198493]	28

same assay, conditions: Table 45; Yap1 mRNA as percent of untreated control, SNU-449 cells, single dose

Substance	YAP1 (% UTC)
1198917 (k[5mC]*kA*d[5mC]*dT*dT*dT*dT*dA*d[5mC]*dA*dT*kT*dA*kG*dG*kA; antisense) [Compound 1198917]	21
1198893 (kA*kA*dA*dT*dT*dG*dT*d[5mC]*dT*d[5mC]*dA*kT*dG*k[5mC]*d[5mC]*kT; antisense) [Compound 1198893]	58
1198971 (k[5mC]*kT*dA*dA*dG*dT*dA*dA*dG*dG*dT*kT*dT*k[5mC]*d[5mC]*k[5mC]; antisense) [Compound 1198971]	31

same assay, conditions: Table 46; Yap1 mRNA as percent of untreated control, SNU-449 cells, single dose

Substance	YAP1 (% UT)
1198887 (kG*kA*d[5mC]*dT*dA*dA*dG*dT*dA*dA*dG*kG*eT*kT*eT*k[5mC]; antisense) [Compound 1198887]	71
1198842 (kG*kT*dG*d[5mC]*dT*dT*dT*dG*dG*dA*dA*kG*eA*kT*e[5mC]*kT; antisense) [Compound 1198842]	37

same assay, conditions: Table 48; Yap1 mRNA level relative to untreated control; modified oligonucleotides targeting SEQ ID NO.: 1 and 2

Substance	YAP1 (% UT)
1197203 (antisense kA*kA*k[5mC]*dT*d[5mC]*dT*dT*dA*dT*dA*dT*dG*dG*kT*kT*kT) [Compound 1197203]	68
1009395 (k[5mC]*kT*kG*dA*dG*dG*dT*dA*dT*dA*dA*d[5mC]*dT*kG*kG*kG; antisense) [Compound 1009395]	43
1198315 (kT*kT*kA*dA*dG*d[5mC]*dA*d[5mC]*dT*dT*dT*dT*kA*e[5mC]*kA*eT; antisense) [Compound 1198315]	85

same assay, conditions: Table 49; Yap1 mRNA level relative to untreated control; modified oligonucleotides targeting SEQ ID NO.: 1 and 2

Substance	YAP1 (% UT)
1198551 (antisense kA*kG*kT*dA*dT*dG*dT*dG*dG*d[5mC]*dA*dA*kT*kA*kA*eT) [Compound 1198551]	34
1198550 (antisense kA*kT*kA*dT*dG*dG*dA*dA*dA*dT*dT*dG*kT*k[5mC]*kT*e[5mC]) [Compound 1198550]	17
1198543 (antisense kA*kT*kT*dG*dT*d[5mC]*dT*d[5mC]*dA*dT*dG*d[5mC]*k[5mC]*kT*kT*eA) [Compound 1198543]	15

same assay, conditions: Table 51; Yap1 mRNA remaining as percent of untreated control (UT), SNU-449 cells, single dose

Substance	YAP1 (% UT)
1197237 (antisense kT*kA*kT*dA*mA*d[5mC]*dT*dG*dG*dG*d[5mC]*dA*dA*kA*kT*kT) [Compound 1197237]	74

same assay, conditions: Table 52; Yap1 mRNA, modified oligonucleotides targeting SEQ ID NO: 1 and 2

Substance	YAP1 (% UT)
1200839 (kT*kT*kA*dT*dA*mU*dG*dG*dT*dT*dT*dT*dG*kT*kG*kT; antisense) [Compound 1200839]	44
1200840 (k[5mC]*kT*kT*dA*dT*mA*dT*dG*dG*dT*dT*dT*dT*kG*kT*kG; antisense) [Compound 1200840]	48

same assay, conditions: Yap1 mRNA, percent of untreated control; modified oligonucleotides targeting SEQ ID NO: 1 and 2; Table 47

Substance	YAP1 (% UT)
1076186 (kA*kT*kT*dT*dA*dG*dG*dA*dT*dG*d[5mC]*dA*dT*kG*kG*kT) [Compound 1076186]	31
1009394 (kT*kA*kT*dA*dA*d[5mC]*dT*dG*dG*dG*d[5mC]*dA*dA*kA*kT*kT; antisense) [Compound 1009394]	73
1198861 (CAACTCTTATATGGTT; chemistry not fully specified) [Compound 1198861]	100
1197226 (antisense kA*kG*kA*d[5mC]*dT*dA*dA*dG*dT*dA*dA*dG*dG*kT*kT*kT) [Compound 1197226]	67
